This note sets out measurements from patent US12385042B2, “Cell-penetrating peptides” (VECTIOPEP OÜ, priority 2019, dated 2025).

Data set [1] deals with murine blood coagulation factor VII mRNA. The data set is described as follows: Gene downregulation in vivo (siFVII, mouse liver, qRT-PCR). The procedure:
For the gene downregulation studies male Balb/c, 2-4 month-old mice were used, with 2-5 mice per group. The CPP/siRNA complexes were formed at MR30 and for each mouse 1.6 mg/kg siRNA dose was used. Particle formulations were administered intravenously via tail vein injection, at 1.6 mg/kg siRNA dose. 48 h post treatment, liver tissues were harvested and snap-frozen for analyses. The tissues were homogenized using Precellys®24-Dual homogenization system (Bertin Technologies, France) with TRIzol reagent (Thermo Fisher Scientific). RNA was extracted according to TRIzol manufacturers protocol with slight modifications. RNA quality and concentration was assessed on 1.8% agarose gel and NanoDrop2000. From RNA complementary DNA was synthesized using SuperScript IV Reverse Transcriptase (Thermo Fisher Scientific) according to manufacturer's protocol. The synthesized cDNA was used for qPCR accompanied with 5× HOT FIREPol EvaGreen qPCR Supermix (Solis Biodyne, Estonia) according to manufacturer's protocol. The obtained data was analyzed using 2-ΔΔCT method and normalized to untreated mouse group (100%). siRNA against blood coagulation factor VII (siFVII) sense 5′-gga (2′F-U) (2′F-C) a (2′F-U) (2′F-C) (2′F-U) (2′F-C) aag (2′F-U) (2′F-C) (2′F-U) (2′F-U) a (2′F-C) T*T-3″ and antisense 5′-g (2′F-U) aaga (2′F-C) (2′F-U) (2′F-U) gaga (2′F-U) ga (2′F-U) (2′F-C) (2′F-C) T*T 3′. Primers for PCR (Mus blood coagulation factor VII) forward […] (SEQ ID NO:11), reverse: […] (SEQ ID NO:12) and (Mus Actin beta) forward: […] (SEQ ID NO: 13) and reverse: […] (SEQ ID NO:14). The siRNA and primers were synthesized by the same manufacturer (Metabion, Germany). Data was collected with ViiA 7 RT_PCR system and analysis based on […] and normalized to results from untreated mice.
As a control hydrodynamic injection of 600 ul of siRNA was used and untreated mice were included. All animal experiments and procedures were approved by the Estonian Laboratory Animal Ethics Committee (approvals no 81, dated Apr. 4, 2016, and 69 and 70, dated Feb. 9, 2011).
Background: Quantitative PCR measures a nucleic acid by following its amplification.

The nature of data set [2]: Negative staining TEM of CPP/siRNA nanoparticles. Type of data set: physicochemical. Particulars: CPP/siRNA complexes at MR30. As for the experimental part:
For the morphological analysis the CPP/siRNA complexes were assembled as described above at MR30. For negative staining, copper grids were covered with Formvar film and carbon layer using Leica EM ACE600 carbon coater (Leica Microsystems, Germany). Then, 10 μL of each sample was absorbed to the grids for 2 min and excess of solution was gently removed. Samples were then exposed to 2% aqueous uranyl acetate solution for 1 min. After removing excess stain with filter paper, the samples were allowed to air-dry. The samples were examined at 120 kV accelerating voltage on FEI Tecnai G2 Spirit electron microscope (FEI, The Netherlands).

Data set [3] relates to murine red blood cells. The data set is described as follows: Membrane activity assay on murine red blood cells: hemolysis. The format is cell-based, mouse. As to conditions: for HC50 CPP/siRNA complex (peptide concentration): CPP/siRNA complexes at MR30; for HC50 Free peptide: pH 7.5. As for the experimental part: For evaluation of membrane activity of peptides, hemolysis assay was used. For this whole blood was collected from mouse (adult, BALB/c) saphenous vein into a heparinized collection tube. Blood was centrifuged (2300× g, 15 min) to separate cells (red blood cells-RBC) from the plasma. RBCs were washed according to following procedures.
RBCs were washed with 10 ml 0.9% NaCl saline and centrifuged (600× g, 15 min). Supernatant was discarded after each centrifugation. This was repeated at least 3 times. RBCs were re-suspended in 5 ml saline and distributed equally to tubes and centrifuged (600× g, 15 min). The cells were washed and re-suspended in 2× PBS with the required pH (pH 5.5-7.5). The hemoglobin content in stocks was measured after lysis of cells with equal volume of 0.1% Triton X100 supplemented with 5% glucose. The cell suspension was diluted accordingly for each pH value to obtain similar concentration range of hemoglobin in stocks. To each 100 ul of peptide solution 100 ul of 10% glucose was added, mixed, and equal volume (200 ul) of RBC in 2× PBS were added and gently mixed. Peptide solution with RBCs was incubated at 37° C. for 1 h with gentle mixing (max 300 rpm) after which samples were centrifuged to pellet intact cells from the solution. Hemoglobin from lysed cells was determined from each sample from the supernatant on transparent 96-well plates by measuring the absorbance at 540 nm.
Controls were incubated in similar manner as samples. As a non-hemolysis control mQ supplemented with glucose (0%) was used and for hemolytic control 0.1% TritonX-100 with glucose (100%) was used (cells are suspended in 2× PBS before addition). Final percent was calculated as follows: […]
For hemolytic concentration determination 2× PBS at pH 7.5 was used for incubation and 1× PBS at pH 7.5 was used for washing. Everything else is as described in previous paragraph.

Data set [4] has as its system subcutaneous U87MG tumor xenograft. The data set is described as follows: Biodistribution of CPP/Cy5-siRNA nanoparticles, U87 tumor. Type of data set: in vivo, mouse. As to conditions: peak at 3 h. As for the experimental part: (§1) Human tumor xenografts (subcutaneous U87MG and HT-1080) were induced in mice (Hsd: Athymic Nude-Foxn1nu female, 2.5 month old, Harlan, UK). The xenografting was performed by implanting the cell suspension (1×10^6 cells in 100 ul volume of ice-cold DMEM without any supplements) subcutaneously to the flank.
(§2) At the appearance of tumor size of approx. 100 mm^3, mice were injected i.v. (via tail vein) with the CPP/siRNA complexes. Each animal received a single 200 ul i.v. injection of 20 ug Cy5-siRNA, formulated with CPPs at MR20 or MR40. As a control, 20 μg of un-complexed Cy5-labeled siRNA was administered. The biodistribution of Cy5-siRNA and CPP/Cy5-siRNA complexes was evaluated at different time points −0.5 h up to 6 h. For that, mice (n=2 in each treatment group) were imaged in vivo using IVIS Lumina II (CaliperLS, USA). Cy-5 fluorescence intensity values were acquired from the tumor region.

For data set [5], the system named is subcutaneous HT-1080 tumor xenograft. The data set is described as follows: Biodistribution of CPP/Cy5-siRNA nanoparticles, HT-1080 tumor. Type of data set: in vivo, mouse. Particulars: peak at 3 h. The procedure:
as §1, §2

In data set [6] the test system is CHO cells. The data set is described as follows: pDNA (p-CMV-Luc2) transfection with CPP/pDNA complexes. The format is cell-based. Particulars: serum containing medium, CR1 to CR4, 24 h. The procedure: For the pDNA transfection experiment, CPP/pDNA nanoparticles were prepared by mixing […] of plasmid (p-CMV-Luc2) with the peptide in MQ water. Charge ratios from 1 to 4 (CR, equivalent to the nitrogen-to-phosphate ratio) were used. 50,000 CHO cells were seeded 24 hr before the experiment into 24-well plates, treated with complexes for 4 h in serum-containing medium, incubated for additional 20 hr, lysed and luminescence was measured.

SMILES strings stand for the structures. Where a SMILES comes first, the peptide text is derived from it. Bridges are numbered along the chain shown (N, C = ends). Roman numbers before positions name the chains, in order. [ ]: non-standard residue; d: D form. The star is where a group is joined. Arachidoyl = CCCCCCCCCCCCCCCCCCCC(=O)*; Stearoyl = CCCCCCCCCCCCCCCCCC(=O)*; Orn = NCCC[C@H](N)C(=O)O

Turning to `CCCCCCCCCCCCCCCCCCCC(=O)N[C@@H](Cc1c[nH]cn1)C(=O)N[C@@H](Cc1c[nH]cn1)C(=O)N[C@@H](Cc1c[nH]cn1)C(=O)N[C@@H](Cc1c[nH]cn1)C(=O)N[C@@H](Cc1ccc(O)cc1)C(=O)N[C@@H](Cc1c[nH]cn1)C(=O)N[C@@H](Cc1c[nH]cn1)C(=O)NCC(=O)NCCC[C@H](N)C(=O)N[C@H](C(=O)N[C@@H](CC(C)C)C(=O)N[C@@H](CC(C)C)C(=O)N[C@@H](CCCCN)C(=O)N[C@@H](C)C(=O)N[C@@H](CC(C)C)C(=O)N[C@@H](CCCCN)C(=O)N[C@@H](C)C(=O)N[C@@H](CC(C)C)C(=O)N[C@@H](C)C(=O)N[C@@H](CCCCN)C(=O)N[C@@H](C)C(=O)N[C@H](C(=O)N[C@@H](CC(C)C)C(N)=O)[C@@H](C)CC)[C@@H](C)CC` [NF70] (I: H-[Orn]ILLKALKALAKAIL-NH2 / II: Arachidoyl-HHHHYHHG; amide I:1-II:C), the “RNA levels preserved compared to untreated mice” value in data set [1] (1.6 mg/kg siFVII, 48 h, liver) is listed as “approximately 40%”. Besides, the “downregulation compared to siRNA treated group” value in data set [1] (1.6 mg/kg siRNA) is 30%. Further, the “downregulation compared to free siRNA and In vivo JetPEI at N/P6” value in data set [1] (same 1.6 mg/kg dose) was “higher downregulation effect”. For the same compound, the “downregulation of the target (FVII) in mouse liver” value in data set [1] (single i.v. injection, 1.6 mg/kg siRNA, MR30, 48 h, vs untreated mice) is approximately 60%. In data set [2], the “length or size of elongated particles, conglomerates or aggregates (TEM)” value is on record as 40-80 nm and the “nanoparticle diameter / size (TEM)” value is 30-40 nm. Also, in data set [3], the “hemolytic concentration, fold higher than NF71” value was 3.6 and the “HC50 CPP/siRNA complex (peptide concentration)” value was 8.3 µM. In data set [3] (free peptide), the “HC50 times higher than that of NF55” value worked out at 2.5 times and the “HC50 Free peptide” value amounted to 4.3 µM. Moreover, the “pH dependent hemolytic activity (in words)” value in data set [3] (peptide 0.75 uM, buffer pH 5.5-7.5) is on record as “the increase was less substantial”.
Regarding `CCCCCCCCCCCCCCCCCC(=O)N[C@@H](Cc1c[nH]cn1)C(=O)N[C@@H](Cc1c[nH]cn1)C(=O)N[C@@H](Cc1ccc(O)cc1)C(=O)N[C@@H](Cc1c[nH]cn1)C(=O)N[C@@H](Cc1c[nH]cn1)C(=O)NCC(=O)NCCC[C@H](N)C(=O)N[C@H](C(=O)N[C@@H](CC(C)C)C(=O)N[C@@H](CC(C)C)C(=O)N[C@@H](CCCCN)C(=O)N[C@@H](C)C(=O)N[C@@H](CC(C)C)C(=O)N[C@@H](CCCCN)C(=O)N[C@@H](C)C(=O)N[C@@H](CC(C)C)C(=O)N[C@@H](C)C(=O)N[C@@H](CCCCN)C(=O)N[C@@H](C)C(=O)N[C@H](C(=O)N[C@@H](CC(C)C)C(N)=O)[C@@H](C)CC)[C@@H](C)CC` [NF71] (I: H-[Orn]ILLKALKALAKAIL-NH2 / II: Stearoyl-HHYHHG; amide I:1-II:C), in data set [4], the “peak accumulation in U87 tumor relative to naked Cy5-siRNA” value is 27 fold. The “peak accumulation in HT-1080 tumor relative to naked Cy5-siRNA” value in data set [5] turned out to be 37 fold. The “pDNA delivery / gene expression in vitro (in words)” value in data set [6] is “promising vectors for pDNA transfection”. The “HC50 CPP/siRNA complex (peptide concentration)” value in data set [3] is 2.5 µM. Also, in data set [3] (free peptide), the “HC50 Free peptide” value is 1.2 µM. In data set [3] (free peptide, up to 10 uM), the “hemolytic activity of free peptide (in words)” value is recorded as “more hemolytic than its parent peptide NF55”.
